Experimental data as given in patent EP4778531A1, “MUSCLE RELAXANT ANTAGONIST FOR REVERSAL FOR BENZYLISOQUINOLINE MUSCLE RELAXANT” (priority 2023, dated 2025).

What was measured:
[1] = test system: Inflammation-Related Factors; assay type: in vivo, ICR mice; details: Adamgammadex sodium 1 g/kg, Sugammadex sodium 1 mg/kg, Neostigmine 0.3 mg/kg
Experimental: An antibody array is a type of protein chip characterized by miniaturization, integration, and high throughput. It can be used to detect the expression abundance of proteins related to a specific physiological or pathological process. The principle involves arranging capture antibodies on a membrane or glass slide, incubating with the sample, adding biotin-labeled antibodies against the target proteins, and finally using HRP-streptavidin or fluorescein-streptavidin to detect the chip signal. Signals are detected using chemiluminescence or HiLyte™ Fluor 555-streptavidin.
In this experiment, ICR mice were randomly divided into a blank group, Adamgammadex sodium (1 g/kg) group, Sugammadex sodium (1 mg/kg) group, and Neostigmine (0.3 mg/kg) group, with 2 mice per group. Mice in each group given the corresponding dosage of compound via the tail vein once daily for 5 consecutive days. On the last day after administration, plasma from the 2 animals per group was mixed and detected using the Ary028 immune chip kit. Specific detection steps were as follows: • (1) Sample volume determination: 200 µL serum sample per Array unit. (2) Blocking protein chip: Each membrane was blocked with 2 mL of corresponding Array Buffer, incubated on a shaker for 1 hour. (3) Sample processing: Samples were diluted with corresponding Array Buffer to a volume of 1.5 mL per membrane, the corresponding Array unit was added, and incubated overnight with the Array protein membrane at 4°C. (4) Membranes were washed three times with corresponding Wash buffer, then diluted detection antibody was added and incubated at room temperature for 1 h. (5) Membranes were washed three times with corresponding Wash buffer, streptavidin-HRP was added and incubated for 30min at room temperature with shaking. (6) Membranes were washed three times with corresponding Wash buffer, 1 mL of chemiluminescent reagent was added to each well, and developed on a chemiluminescence imager. (7) Fluorescence intensity was used to represent the relative concentration of the corresponding protein.

[2] = test system: neuromuscular blockade induced by atracurium; details: H. D. de Boer et al., British Journal of Anaesthesia 2006; cited from earlier work
[3] = such as mivacurium, atracurium, and cisatracurium; background; cited from earlier work
[4] = ICR mice, tail vein once daily for 5 days, pooled plasma of 2 mice, N.D. = below minimum detection limit

O=C([O-])CCSC[C@H]1O[C@@H]2O[C@H]3[C@H](O)[C@@H](O)[C@@H](O[C@H]4[C@H](O)[C@@H](O)[C@@H](O[C@H]5[C@H](O)[C@@H](O)[C@@H](O[C@H]6[C@H](O)[C@@H](O)[C@@H](O[C@H]7[C@H](O)[C@@H](O)[C@@H](O[C@H]8[C@H](O)[C@@H](O)[C@@H](O[C@H]9[C@H](O)C(O)[C@@H](O[C@H]1[C@H](O)[C@H]2O)O[C@@H]9CSCCC(=O)[O-])O[C@@H]8CSCCC(=O)[O-])O[C@@H]7CSCCC(=O)[O-])O[C@@H]6CSCCC(=O)[O-])O[C@@H]5CSCCC(=O)[O-])O[C@@H]4CSCCC(=O)[O-])O[C@@H]3CSCCC(=O)[O-].[Na+].[Na+].[Na+].[Na+].[Na+].[Na+].[Na+].[Na+] (stereo partly drawn) [Compound 7, Sugammadex sodium]
Fluorescence Intensity BAFF/BlyS/ TNFSF13B (B cell activation factor) [1, 4]: 13375.34
Fluorescence Intensity C-Reactive Protein/CRP (C-reactive protein) [1, 4]: 8550.52
Fluorescence Intensity CCL21/6Ckine (Lymphocyte chemokine CCL21) [1, 4]: 27027.2
Fluorescence Intensity CCL22/MDC (Macrophage-derived chemokine) [1, 4]: 2578.89
Fluorescence Intensity CD160 (Leukocyte differentiation antigen160) [1, 4]: 187.67
Fluorescence Intensity CXCL9/MIG (IFN-γ-induced monocyte factor) [1, 4]: 3617.92
Fluorescence Intensity Chemerin (Chemotactic factor) [1, 4]: 4629.24
Fluorescence Intensity IL-7 (Interleukin-7) [1, 4]: 1922.84
Fluorescence Intensity IL-11 (Interleukin-11) [1, 4]: 216.49
Fluorescence Intensity IL-12p40 (Interleukin IL-12p40) [1, 4]: 1049.34
Fluorescence Intensity IL-28 (Interleukin-28) [1, 4]: 2440.68
Fluorescence Intensity IL-33 (Interleukin-33) [1, 4]: 592.77
Fluorescence Intensity M-CSF (Macrophage colony-stimulating factor) [1, 4]: 5871.05
Fluorescence Intensity Myeloperoxidase (Mastoperoxidase) [1, 4]: 4645.21
Fluorescence Intensity Pentraxin 3 (Pertussis toxin 3) [1, 4]: 4555.53
Fluorescence Intensity TIM-1/KIM-1/ HAVCR (Hepatitis A virus receptor-1 (inflammation/ immunity)) [1, 4]: 1023.1
impact on inducing immune inflammation in mice (in words) ([1]; conclusion from Tables 3 and 4): second-lowest impact
Fluorescence Intensity M-CSF (Macrophage lysis-stimulating factor) ([1]; second M-CSF line of Table 4, ICR mice, tail vein once daily for 5 days, pooled plasma of 2 mice, N.D. = below minimum detection limit): 5871.05
Fluorescence Intensity Pentraxin 3/TSG-14 (Pertussis toxin 3) ([1]; second Pentraxin 3 line of Table 4, ICR mice, tail vein once daily for 5 days, pooled plasma of 2 mice, N.D. = below minimum detection limit): 4555.53
reversing the neuromuscular blockade induced by atracurium (in words) [2]: ineffective
binding to succinylcholine or benzylisoquinoline-type neuromuscular blocking agents (in words) [3]: does not bind
